The source of these data is patent US5391549A, “Cinnoline-3-carboxylic acid derivatives” (Mitsubishi Kasei Corporation, priority 1992, dated 1995).

For the assay, the target named is T1, 5-HT3 receptor (Rattus norvegicus, UniProt P35563).
T1 construct: from tissue; host or cells: whole living rat (male Wistar, urethane-anesthetized); endogenous receptor
T1 sequence (P35563 24-483): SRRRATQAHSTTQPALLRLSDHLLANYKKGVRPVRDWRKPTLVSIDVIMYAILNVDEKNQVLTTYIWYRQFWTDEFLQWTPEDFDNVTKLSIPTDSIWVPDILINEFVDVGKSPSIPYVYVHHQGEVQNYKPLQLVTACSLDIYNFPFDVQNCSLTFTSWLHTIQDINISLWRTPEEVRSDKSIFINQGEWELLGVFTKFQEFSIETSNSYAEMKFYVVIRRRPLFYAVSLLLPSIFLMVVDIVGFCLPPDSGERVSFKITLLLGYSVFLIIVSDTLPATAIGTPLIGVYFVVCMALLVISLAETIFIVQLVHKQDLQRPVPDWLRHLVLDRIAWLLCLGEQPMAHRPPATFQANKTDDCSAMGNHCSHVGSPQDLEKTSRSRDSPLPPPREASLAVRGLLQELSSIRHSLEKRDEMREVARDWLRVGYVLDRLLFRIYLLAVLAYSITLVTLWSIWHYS
Put plainly: Inhibitory effect on the Bezold-Jarish's reflex induced in anesthetized rats with 5-HT (5HT3 receptor antagonistic effect). It counts as in vivo, rat (male Wister strain). To be noted: iv, i.v. test compound, 5-HT 8 μg/kg i.v., urethane-anesthetized male Wister rats, dose giving 50% inhibition, read-out: B-J Reflex Inhibition (ID50). As to the method:
1) 5HT3 Receptor Antagonistic Effect
The antagonistic activity of the compounds of the invention to 5-HT3 receptor was evaluated as to the inhibitory effect on the Bezold-Jarish's reflex induced in anesthetized rats with 5-HT as follows.
Male Wister strain rats (300-400 g weight) were anesthetized by peritoneal injection of urethane (1.25 g/kg) and the heart rate was monitored from an electrocardiograph. Rats were intravenously injected with physiological saline (0.5 ml/kg) and 5-HT (8 μg/kg) solution (0.5 ml/kg) in physiological saline at five minutes interval and the change in the heart rate was recorded (A). Another group of rats were intravenously injected with a test compound and 5-HT solution in the same manner as the above at five minutes interval and the change in the heart rate was recorded (B). The percent inhibition of 5-HT-induced Bezold-Jarish's reflex was calculated as follows.
Inhibition (%)=(1-B/A)×100
In the Table, ID50 is a dose of a compound (I) of the invention which gives a 50% inhibition. The compound number in Table 4 correspond to those in Tables 1-3.

Counter-ions that a name gives are not always drawn.

For the compound `CCCn1nc(C(=O)NC2CC3CCC(C2)N3C)c(=O)c2ccccc21` (stereo not drawn) [Compound 86, N-(endo-8-methyl-8-azabicyclo[3.2.1]oct-3-yl)-1-propyl-1,4-dihydro-4-oxocinnoline-3-carboxamide hydrochloride], the ED50 turned out to be 0.15 µg/kg. With `CCCn1nc(C(=O)NC2CC3CCC(C2)N3C)c(=O)c2cccc(F)c21` (stereo not drawn) [Compound 102, 8-Fluoro-N-(endo-8-methyl-8-azabicyclo[3.2.1]oct-3-yl)-1-propyl-1,4-dihydro-4-oxocinnoline-3-carboxamide hydrochloride] the figure was 0.2 µg/kg; with `CCn1nc(C(=O)NC2CC3CCC(C2)N3C)c(=O)c2ccccc21` (stereo not drawn) [Compound 76, N-(endo-8-methyl-8-azabicyclo[3.2.1]oct-3yl)-1-ethyl-1,4-dihydro-4-oxocinnoline-3-carboxamide hydrochloride], 0.3 µg/kg.
